Values of other authors, collected in patent US7993684B2, “Method of inhibiting alveolar bone resorption and periodontal membrane loss and composition for internal use to be used therein” (Sunstar Inc., priority 2003, dated 2011).

Legend:
[1] = tested on: periodontal disease-causing bacteria; conditions: Japanese Unexamined Patent Publication No. 1992-283518
alveolar bone resorption = conditions: Japanese Unexamined Patent Publication No. 1996-133969

| Compound | Antibacterial activity against periodontal disease-causing bacteria [1] | Inhibition of alveolar bone resorption related to periodontal disease (alveolar bone resorption) |
| --- | --- | --- |
| O=c1c(-c2ccc(O)cc2)coc2cc(O)cc(O)c12 [genistein] | shows antibacterial activity |  |
| calcium pantothenate |  | inhibit alveolar bone resorption |
